Tests used:
Assay type in all cases: cell-based
[1] = tested on: Isogenic E. coli J58 strain carrying IMP-1; experiment: MIC determination, isogenic E. coli strains
Procedure, shortened: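 Broth microdilution in cation-adjusted Mueller-Hinton broth with 20 μM apo-transferrin, compound serially diluted two-fold from 64 μg/mL, against E. coli J53 carrying plasmid-borne IMP-1. Inoculum adjusted to 0.5 McFarland; plates incubated 18 h at 37° C. MIC taken as lowest concentration giving a clear well.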

[2] = tested on: Isogenic E. coli J58 strain carrying CTX-M-14; experiment: MIC determination, isogenic E. coli strains; conditions: Escherichia coli, 18 h, read-out: Mimimum Inhibitory Concentrations, CTX-M-14
Procedure, shortened: (§1)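 Isogenic E. coli J53 carrying plasmid-encoded CTX-M-14 or CTX-M-15 (ampicillin-selected), standardized to 0.08-0.1 OD600, incubated overnight (18 h, 37° C.) in CAMH broth plus 20 μM apo-transferrin over 2-fold compound dilutions starting at 64 μg/mL. Lowest concentration with no visible growth recorded as MIC.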

[3] = tested on: Isogenic E. coli J58 strain carrying CTX-M-15; experiment: MIC determination, isogenic E. coli strains; conditions: Escherichia coli, 18 h, read-out: Mimimum Inhibitory Concentrations, CTX-M-15
Procedure, shortened: as §1

[4] = tested on: Pseudomonas aeruginosa PA (RR-2); experiment: MIC determination; conditions: Pseudomonas aeruginosa; PA (RR-2); CAMH broth, 20 μM Apo-Transferrin, 37° C., 18 hours; read-out: Minimum Inhibitory Concentrations, PA (RR-2)
Procedure: (§2) Sterile technique was used throughout these experiments. Suspensions of organisms were removed from storage (−80° C.) and partially thawed. Partially thawed organisms (1 μL) were inoculated into 3 mL sterile LB Broth in a sterile culture tube and capped, then cultured at 37° C. with shaking for 4-5 hours until the optical density at 600 nm (OD600) was greater than 0.1 on a single beam spectrophotometer.
(§3) The concentration of organisms was adjusted to 0.08-0.1 OD600 (0.5 McFarland units) by dilution with sterile cation-adjusted Meuller-Hinton (CAMH) broth. The suspensions were used within 30 minutes of preparation.
(§4) A stock solution was made of each test compound by measuring 6.4 mg of the compound on an analytical balance and dissolving it in DMSO (1 mL) to get a transparent solution. The solutions were stored at −20° C. and thawed prior to use.
(§5) Sterile CAMH broth (200 μL) containing 20 μM Apo-Transferrin was pipetted into the first row of 8 columns of a sterile, round-bottomed, transparent, 96-well microplate using an 8-channel pipette equipped with sterile tips. One hundred μL was pipetted into the wells of the remaining 11 rows.
(§6) With an 8-channel pipette equipped with sterile tips, 100 μL of the first row solution was transferred to the second row and mixed. The process was repeated for the second to third rows and continued through row 11. One hundred μL from row 11 was removed and discarded so that all 12 rows contained 100 μL. Row 12 contained no compound and rows 1-11 contained 64, 32, 16, 8, 4, 2, 1, 0.5, 0.25, 0.125, […] of a given compound.
(§7) Inoculant suspensions (0.5 μL) were added to the 12 wells of each column. The plates were then covered and incubated at 37° C. overnight for 18 hours.
(§8) For each organism the MIC was determined by identifying the transparent well with the lowest test compound concentration.

[5] = tested on: Pseudomonas aeruginosa PA-RR-(980151052); experiment: MIC determination; conditions: Pseudomonas aeruginosa; PA-RR-(980151052); CAMH broth, 20 μM Apo-Transferrin, 37° C., 18 hours; read-out: Minimum Inhibitory Concentrations, PA-RR-(980151052)
Procedure: as §2, §3, §4, §5, §6, §7, §8

[6] = tested on: Pseudomonas aeruginosa PA-RR-(G8062859); experiment: MIC determination; conditions: Pseudomonas aeruginosa; PA-RR-(G8062859); CAMH broth, 20 μM Apo-Transferrin, 37° C., 18 hours; read-out: Minimum Inhibitory Concentrations, PA-RR-(G8062859)
Procedure: as §2, §3, §4, §5, §6, §7, §8

[7] = tested on: Pseudomonas aeruginosa PA (RR-1); experiment: MIC determination; conditions: Pseudomonas aeruginosa; PA (RR-1); CAMH broth, 20 μM Apo-Transferrin, 37° C., 18 hours; read-out: Minimum Inhibitory Concentrations, PA (RR-1)
Procedure: as §2, §3, §4, §5, §6, §7, §8

[8] = tested on: Pseudomonas aeruginosa PA-RR-(G7305586); experiment: MIC determination; conditions: Pseudomonas aeruginosa; PA-RR-(G7305586); CAMH broth, 20 μM Apo-Transferrin, 37° C., 18 hours; read-out: Minimum Inhibitory Concentrations, PA-RR-(G7305586)
Procedure: as §2, §3, §4, §5, §6, §7, §8

[9] = tested on: Pseudomonas aeruginosa PA-RR-(purple Fre D); experiment: MIC determination; conditions: Pseudomonas aeruginosa, CAMH broth, 20 μM Apo-Transferrin, 37° C., 18 hours, read-out: Minimum Inhibitory Concentrations, PA-RR-(purple Fre D)
Procedure: as §2, §3, §4, §5, §6, §7, §8

E. coli J53 Alone = experiment: MIC determination, isogenic E. coli strains; conditions: for MIC: Escherichia coli, J53ALONE, 18 h, read-out: Mimimum Inhibitory Concentrations, J53 Alone; for Mimimum Inhibitory Concentrations, J53 Alone: Table 4-2, CAMH broth, 20 μM Apo-Transferrin, 37° C., 18 hours
Procedure, shortened: (§9)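 Broth microdilution in cation-adjusted Mueller-Hinton broth with 20 μM apo-transferrin, 2-fold compound series from 64 μg/mL. E. coli J53, alone or transformed with a pBC-SK(+) plasmid carrying the beta-lactamase gene (e.g. DHA-1), inoculated from 0.5 McFarland suspension; 18 h at 37° C; MIC = lowest concentration with clear well.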

[10] = tested on: Isogenic E. coli J58 strain carrying DHA-1; experiment: MIC determination, isogenic E. coli strains; conditions: Escherichia coli, 18 h, read-out: Mimimum Inhibitory Concentrations, DHA-1
Procedure, shortened: as §9

[11] = tested on: Isogenic E. coli J58 strain carrying NDM-1; experiment: MIC determination, isogenic E. coli strains; conditions: Escherichia coli, 18 h, read-out: Mimimum Inhibitory Concentrations, NDM-1
Procedure, shortened: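 E. coli J53 transformed with a pBC-SK(+) plasmid encoding NDM-1 was adjusted to 0.08-0.1 OD600. It was grown 18 h at 37° C in CAMH broth containing 20 μM apo-transferrin with twofold compound dilutions from 64 μg/mL. MIC was taken as the lowest concentration giving a transparent well.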

[12] = tested on: Isogenic E. coli J58 strain carrying VIM-2; experiment: MIC determination, isogenic E. coli strains; conditions: for MIC: Escherichia coli, 18 h, read-out: Mimimum Inhibitory Concentrations, VIM-2; for MICs for an E. coli strain carrying the gene for carbapenemase VIM-1, in words: review of Tables 4-1 and 4-2
Procedure, shortened: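 E. coli J53 transformed with pBC-SK(+) plasmid carrying synthesized VIM-2 gene, grown in LB to OD600 >0.1, adjusted to 0.08–0.1 OD600 in CAMH broth.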

[13] = tested on: Isogenic E. coli J58 strain carrying TEM-26; experiment: MIC determination, isogenic E. coli strains; conditions: Escherichia coli, 18 h, read-out: Mimimum Inhibitory Concentrations, TEM-26
Procedure, shortened: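 Broth microdilution in cation-adjusted Mueller-Hinton broth with 20 μM apo-transferrin, compound […] in twofold steps, inoculum from 0.5 McFarland suspension. E. coli J53 transformed with pBC-SK(+) encoding TEM-26; 18 h at 37° C, MIC as lowest concentration giving a clear well.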

[14] = tested on: Isogenic E. coli J58 strain carrying KPC-3; experiment: MIC determination, isogenic E. coli strains; conditions: Escherichia coli, 18 h, read-out: Mimimum Inhibitory Concentrations, KPC-3
Procedure, shortened: (§10)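 Broth microdilution in cation-adjusted Mueller-Hinton broth with 20 μM apo-transferrin, compound at 64 down to […], inoculum set to 0.5 McFarland. E. coli J53 transformed with pBC-SK(+) carrying the synthetic beta-lactamase gene was used. Plates were incubated 18 h at 37 °C; MIC is the lowest concentration giving a clear well.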

[15] = tested on: Isogenic E. coli J58 strain carrying KPC-2; experiment: MIC determination, isogenic E. coli strains; conditions: Escherichia coli, 18 h, read-out: Mimimum Inhibitory Concentrations, KPC-2
Procedure, shortened: as §10

[16] = tested on: Isogenic E. coli J58 strain carrying SHV-1; experiment: MIC determination, isogenic E. coli strains; conditions: Escherichia coli, 18 h, read-out: Mimimum Inhibitory Concentrations, SHV-1
Procedure, shortened: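 MIC is the lowest compound concentration leaving a transparent well after overnight (18 h) incubation at 37 °C. The test strain was E. coli J53 expressing plasmid-borne SHV-1 beta-lactamase from pBC-SK(+), adjusted to 0.5 McFarland. Compounds were twofold serially diluted, starting at 64 μg/mL, in CAMH broth supplemented with 20 μM apo-transferrin.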

| Compound | MICs for an E. coli strain carrying the gene for carbapenemase IMP-1, in words ([1]; review of Tables 4-1 and 4-2) | MIC [2] | MIC [3] | MIC [4] | MIC [5] | MIC [6] | MIC [7] | MIC [8] | MIC [9] | MIC (E. coli J53 Alone) | Mimimum Inhibitory Concentrations, J53 Alone (E. coli J53 Alone) | MIC [10] | MIC [11] | MIC [12] | MICs for an E. coli strain carrying the gene for carbapenemase VIM-1, in words [12] | MIC ([1]; Escherichia coli, 18 h, read-out: Mimimum Inhibitory Concentrations, IMP-1) | MIC [13] | MIC [14] | MIC [15] | MIC [16] |
| --- | --- | --- | --- | --- | --- | --- | --- | --- | --- | --- | --- | --- | --- | --- | --- | --- | --- | --- | --- | --- |
| CC(C)(O/N=C(\C(=O)N[C@@H]1C(=O)N2C(C(=O)O)=C(C=Cc3ccc(C[N+]4(C)Cc5cc(O)c(O)c(Cl)c5C4)cc3)CS[C@H]12)c1csc(N)n1)C(=O)O (mixture of isomers) [Compound 432, 2-(4-((E/Z)-2-((6R,7R)-7-((Z)-2-(2-aminothiazol-4-yl)-2-(((2-carboxypropan-2-yl)oxy)imino)acetamido)-2-carboxy-8-oxo-5-thia-1-azabicyclo[4.2.0]oct-2-en-3-yl)vinyl)benzyl)-4-chloro-5,6-dihydroxy-2-methylisoindolin-2-ium] | low microgram/mL MICs | ≤ 0.06 µg/mL | ≤ 0.06 µg/mL | 0.13 µg/mL | 0.25 µg/mL | 0.5 µg/mL | 1 µg/mL | 1 µg/mL | 1 µg/mL | ≤ 0.06 µg/mL | ≤0.06 microgram/mL | ≤ 0.06 µg/mL | > 64 µg/mL | ≤ 0.06 µg/mL | low microgram/mL MICs |  |  |  |  |  |
| C#CC[N+]1(Cc2ccc(C=CC3=C(C(=O)O)N4C(=O)[C@@H](NC(=O)/C(=N\OC(C)(C)C(=O)O)c5csc(N)n5)[C@H]4SC3)cc2)CCc2cc(O)c(O)cc2C1 (mixture of isomers) [Compound 446, 2-(4-((E/Z)-2-((6R,7R)-7-((Z)-2-(2-aminothiazol-4-yl)-2-(((2-carboxypropan-2-yl)oxy)imino)acetamido)-2-carboxy-8-oxo-5-thia-1-azabicyclo[4.2.0]oct-2-en-3-yl)vinyl)benzyl)-6,7-dihydroxy-2-(prop-2-yn-1-yl)-1,2,3,4-tetrahydroisoquinolin-2-ium] |  | 0.25 µg/mL | 0.25 µg/mL |  |  |  |  |  |  | 0.13 µg/mL | 0.13 microgram/mL | 0.25 µg/mL | > 64 µg/mL | 0.25 µg/mL |  | 1 µg/mL | 0.25 µg/mL | 1 µg/mL | 2 µg/mL |  |
| CC(C)(O/N=C(\C(=O)N[C@@H]1C(=O)N2C(C(=O)O)=C(C=Cc3ccc(C[n+]4ccc(-c5ccc(O)c(O)c5)cc4)cc3)CS[C@H]12)c1csc(N)n1)C(=O)O (mixture of isomers) [Compound 412, 1-(4-((E/Z)-2-((6R,7R)-7-((Z)-2-(2-aminothiazol-4-yl)-2-(((2-carboxypropan-2-yl)oxy)imino)acetamido)-2-carboxy-8-oxo-5-thia-1-azabicyclo[4.2.0]oct-2-en-3-yl)vinyl)benzyl)-4-(3,4-dihydroxyphenyl)pyridin-1-ium] |  | 0.5 µg/mL | 0.13 µg/mL | 2 µg/mL | 4 µg/mL | 1 µg/mL | 4 µg/mL | 16 µg/mL | 2 µg/mL | ≤ 0.06 µg/mL | ≤0.06 microgram/mL |  | > 64 µg/mL | 0.5 µg/mL |  |  |  |  |  |  |
| CC(C)(O/N=C(\C(=O)N[C@@H]1C(=O)N2C(C(=O)O)=C(C=Cc3ccc(C[N+]4(C)Cc5c(Cl)c(O)c(O)c(Cl)c5C4)cc3)CS[C@H]12)c1csc(N)n1)C(=O)O (mixture of isomers) [Compound 431, 2-(4-((E/Z)-2-((6R,7R)-7-((Z)-2-(2-aminothiazol-4-yl)-2-(((2-carboxypropan-2-yl)oxy)imino)acetamido)-2-carboxy-8-oxo-5-thia-1-azabicyclo[4.2.0]oct-2-en-3-yl)vinyl)benzyl)-4,7-dichloro-5,6-dihydroxy-2-methylisoindolin-2-ium] |  | 0.13 µg/mL | 0.13 µg/mL | ≤ 0.06 µg/mL | 0.25 µg/mL | 0.5 µg/mL | 0.13 µg/mL | 0.5 µg/mL | 0.5 µg/mL | ≤ 0.06 µg/mL | ≤0.06 microgram/mL | 1 µg/mL | > 64 µg/mL | ≤ 0.06 µg/mL | low microgram/mL MICs |  |  |  |  | 0.13 µg/mL |
